Data on eight molecules can be found in patent publication US10077289B2, “Cyclosporins modified on the MeBmt sidechain by heterocyclic rings” (priority 2015, dated 2018).

A short description of data set [1]: Water Solubility Assay (measured in pH 7.8 buffer). The class given is physicochemical. To be noted: 25 °C, kinetic from dmso stock. The protocol: Water Solubility Assay (Measured in pH 7.8 Buffer)
The aqueous solubility of a compound of Formula I in buffer (pH 7.8) was measured by recording the onset of precipitation of the compound as a function of increasing concentration. The onset of precipitation, if it occurred, was detected by an increase in absorbance at 650 nm.
Assay Buffer: 35 mM HEPES pH 7.8
Stock solutions of Control and Test Compounds: 10 mM in 100% DMSO.
10 mM stock solutions of control and test compounds were prepared in 100% DMSO.
Assay buffer (247.5 μl) was placed into flat bottomed transparent 96-well plate. For blank samples DMSO (2.5 μl) was added. For test and control samples 2.5 μl of the appropriate DMSO dilution stocks were added to the appropriate well. All test and control compounds were performed in triplicate.
The plates were sealed with adhesive plate seal and shaken at 250 rpm at 25° C. for 18 h on a plate shaker. After incubation the plate seals were taken off and any bubbles observed in wells removed. The plates were read on a SpectraMaxM5 with a 5 s pre-shake at 650 nm. Data files were transferred to the appropriate worksheet and the solubility range of the compounds was calculated from the data. The values shown in the Tables indicate the concentration in μM (micromolar) at which the compound remains in solution.

The target in data set [2] is Human recombinant cyclophilin A (Cyp A) (Homo sapiens (Human), UniProt P62937). Nature of the data set: Protease-free PPIase assay. The protocol:
Protease-Free PPIase Assay
The protease-free PPIase assay measures the rate of cis to trans conversion of a peptide substrate catalyzed by the enzyme cyclophilin A. Addition of a cyclophilin A inhibitor (e.g., a test compound) slows the catalyzed rate and a Ki value is obtained.
35 mM HEPES pH 7.8, filtered through a 0.2 μm filter. 50 μM DTT was added prior to use each day and then the buffer was stored on ice.
Human recombinant cyclophilin A (Cyp A) (Sigma C3805) enzyme was diluted to 1 μM with enzyme dilution buffer (20 mM HEPES pH 7.8, 40% glycerol, 50 μM DTT and 1 μM BSA) and stored at −20° C.
Succinimide-Ala-Ala-Pro-Phe-p-nitroanilide (SUC-AAPF-pNA) (from Bachem AG, L-1400), 20 mg/ml prepared in 0.5 M LiCl in trifluoroethanol.
The temperature is monitored by the use of a temperature probe. To prevent UV degradation of test compounds, the light below 290 nm was blocked using a glass slide in the light path. 1.5 ml of the assay buffer was put into a 3 ml quartz cuvette and cooled to 10.0±0.1° C. while stirring (vigorous but not so fast as to produce cavitation). The inhibitor was diluted in 100% DMSO, and then added to the assay to a maximum final concentration of 0.5% DMSO in the assay. A blank spectrum was obtained, then 3 μL of enzyme was added (2 nM final concentration) and then 3 μL substrate (60 μM final concentration) added. The absorbance was measured at 330 nm for 300 s or 500 s for blank runs (NOTE: the substrate must be added in one quick injection and the measurements started immediately to minimize mixing errors).
A first order rate equation was fitted to the absorbance data, for each concentration of inhibitor, to obtain the rate constant (the first 10 to 15 seconds were excluded as mixing causes errors in this portion of curve). The catalytic rate was calculated from the enzymatic rate constant minus the background rate constant. An exponential curve was generated using the catalytic rate constants versus the inhibitor concentration to obtain the Ki value for the inhibitor. The Ki value is indicative of the binding affinity between the test compound and cyclophilin A.

Data set [3] addresses calcineurin/cyclophilin A (Homo sapiens (Human), UniProt P62937+P63098+Q08209). Description: Calcineurin Phosphatase (CaN) Assay (+CypA). It counts as biochemical. To be noted: in the presence of Cyp A, 1:1 complex with inhibitor; read-out: Calcineurin Phosphatase (CaN) Assay (+CypA) IC50. The text has this:
Calcineurin Phosphatase (CaN) Assay
The calcineurin phosphatase assay is a means for estimating the immunosuppressive potential of a test compound. Calcineurin is a serine-threonine protein phosphatase that on activation dephosphorylates members of the nuclear factor of activated T cells (NFAT), which are important in T lymphocyte activation.
To investigate the immunosuppressive potential of exemplary compounds of Formula I, which are cyclosporin analogs, their ability to inhibit calcineurin activity was measured in the presence and absence of Cyp A.
The CaN assay kit used is based on a colorimetric assay for measuring calcineurin phosphatase activity, and it is commercially available (Enzo Life Sciences and Calbiochem). Calmodulin is also required for calcineurin activity and RII phosphopeptide is used as an efficient peptide substrate for calcineurin. […] The detection of free phosphate released is based on the classic Malachite green assay.
Enzo Life Sciences CaN Assay Kit: BML-AK804
Malachite Green: BIOMOL Green™ reagent
Calmodulin (Human, recombinant): was thawed on ice, diluted 1:50 with 2× assay buffer, and then stored on ice.
Calcineurin: was thawed quickly, stored on ice immediately, diluted 1:12.5 with 1× assay buffer, and then stored on ice.
R-II Substrate: 915 μL ultrapure water (UPW) was added to the 1.5 mg vial substrate to give a final concentration of 0.75 mM.
Inhibitors: 2.5 mM inhibitor in 100% DMSO.
Cyp A: recombinant human CypA (Sigma C3805), 1 mg/ml; Recombinant 6-His tagged CypA prepared by the University of Edinburgh was also used.
Inhibitor dilutions: inhibitor compounds were diluted in UPW in polypropylene low-binding 96 well plates at 5× the final assay concentration.
Assay Setup: using the half area 96 well plates supplied with the kit, 10 μl UPW was added to duplicate wells to provide the non-inhibited control. 10 μl of the inhibitor or the inhibitor/Cyp A complex was added to the appropriate sample wells. 25 μl of the 2× assay buffer with CaM was added to all wells, then 5 μl of CaN was added to all wells (40 U per well final concentration) except duplicate ‘no calcineurin blank’ wells to which 5 μL 1× assay buffer was added. The assay plate was placed in an oven at 30° C. for 15 minutes to equilibrate to the reaction temperature. The reaction was started by the addition of 10 μl RII-peptide (0.15 mM final concentration). The reaction was allowed to proceed at 30° C. for a time period in which the reaction is linear for about 60 minutes. The reaction was then terminated by adding 100 μl of the Malachite Green reagent. The color was allowed to develop for 15-30 minutes at room temperature before the absorbance at 620 nm was measured using a plate reader (Molecular Devices—SpectraMax M5). The data were analyzed by subtracting ‘no Calcineurin blank’ from all the absorbance readings and plotting the background corrected absorbances against Log10 inhibitor concentration. A sigmoidal-dose response curve was fitted to the data using GraphPad Prism Software.
It exerts its immunosuppressive activity by binding to cyclophilin A to form a complex, which then binds to calcineurin and thereby inhibits calcineurin activity.

For orientation: Ki means the dissociation constant of the complex between target and ligand, obtained from inhibition or displacement. For orientation: IC50 means the concentration that gives 50% inhibition.

The structures appear in SMILES notation. In brackets after ≈: the same amount, converted by molar mass. Where two headings read alike, the source gives them in different places. Some results are limits rather than exact numbers.

`CC[C@H]1NC(=O)[C@@H]([C@H](O)[C@H](C)CCCc2ccncc2)N(C)C(=O)[C@@H](C(C)C)N(C)C(=O)[C@@H](CC(C)C)N(C)C(=O)[C@@H](CC(C)C)N(C)C(=O)[C@H](C)NC(=O)[C@@H](C)NC(=O)[C@@H](CC(C)C)N(C)C(=O)[C@@H](C(C)C)NC(=O)[C@H](CC(C)C)N(C)C(=O)[C@@H](C)N(C)C1=O` [Compound 15, [(2S,3R,4R)-3-Hydroxy-4-methyl-2-(methylamino)-7-(pyridin-4-yl)-heptanoic acid]^1 [(R)-methyl-Sar]^3 cyclosporin A] had a solubility at 18 h in data set [1] (pH 7.8, aqueous buffer) of 50 to 75 µM (≈ 64.1 to 96.1 µg/mL). Also, the Ki in data set [2] was determined as 2.5 nM. In addition, the IC50 in data set [3] is 1600 nM.

`CC[C@H]1NC(=O)[C@@H]([C@H](O)[C@H](C)CCCc2ccc(OC)cn2)N(C)C(=O)[C@@H](C(C)C)N(C)C(=O)[C@@H](CC(C)C)N(C)C(=O)[C@@H](CC(C)C)N(C)C(=O)[C@H](C)NC(=O)[C@@H](C)NC(=O)[C@@H](CC(C)C)N(C)C(=O)[C@@H](C(C)C)NC(=O)[C@H](CC(C)C)N(C)C(=O)[C@@H](C)N(C)C1=O` [Compound 16, [(2S,3R,4R)-3-Hydroxy-4-methyl-2-(methylamino)-7-(5-methoxy-pyridin-2-yl)-heptanoic acid]^1 [(R)-methyl-Sar]^3 cyclosporin A]: in data set [1] (35 mM HEPES buffer pH 7.8, aqueous buffer, 35 mM HEPES pH 7.8, 1% DMSO, 18 h, read-out: Water Solubility Assay, concentration at which the compound remains in solution), the solubility at 18 h was 25 to 50 µM (≈ 32.8 to 65.6 µg/mL). For the same molecule, the Ki in data set [2] (read-out: Protease-free PPIase Assay Ki, human recombinant Cyp A, 10 °C) amounted to 0.72 nM. Further, the IC50 in data set [3] was greater than 10000 nM.

On to `CC[C@H]1NC(=O)[C@@H]([C@H](O)[C@H](C)CCCc2ccnc(C)c2)N(C)C(=O)[C@@H](C(C)C)N(C)C(=O)[C@@H](CC(C)C)N(C)C(=O)[C@@H](CC(C)C)N(C)C(=O)[C@H](C)NC(=O)[C@@H](C)NC(=O)[C@@H](CC(C)C)N(C)C(=O)[C@@H](C(C)C)NC(=O)[C@H](CC(C)C)N(C)C(=O)[C@@H](C)N(C)C1=O` [Compound 17, [(2S,3R,4R)-3-Hydroxy-4-methyl-2-(methylamino)-7-(2-methyl-pyridin-4-yl)-heptanoic acid]^1 [(R)-methyl-Sar]^3 cyclosporin A], for which the solubility at 18 h in data set [1] (pH 7.8, aqueous buffer) fell in the range of 25 to 50 µM (≈ 32.4 to 64.8 µg/mL). Moreover, in data set [2], the Ki stood at 3.9 nM. Besides, the IC50 in data set [3] was 9250 nM.

`CC[C@H]1NC(=O)[C@@H]([C@H](O)[C@H](C)CCCc2cnccn2)N(C)C(=O)[C@@H](C(C)C)N(C)C(=O)[C@@H](CC(C)C)N(C)C(=O)[C@@H](CC(C)C)N(C)C(=O)[C@H](C)NC(=O)[C@@H](C)NC(=O)[C@@H](CC(C)C)N(C)C(=O)[C@@H](C(C)C)NC(=O)[C@H](CC(C)C)N(C)C(=O)[C@@H](C)N(C)C1=O` [Compound 18, [(2S,3R,4R)-3-Hydroxy-4-methyl-2-(methylamino)-7-(pyrazin-2-yl)-heptanoic acid]^1 [(R)-methyl-Sar]^3 cyclosporin A]: the solubility at 18 h in data set [1] (pH 7.8, aqueous buffer) fell in the range of 50 to 75 µM (≈ 64.1 to 96.2 µg/mL). The Ki in data set [2] came to 2.2 nM. Besides, the IC50 in data set [3] came to 5800 nM.

Regarding `CC[C@H]1NC(=O)[C@@H]([C@H](O)[C@H](C)CCCc2cn(C)cn2)N(C)C(=O)[C@@H](C(C)C)N(C)C(=O)[C@@H](CC(C)C)N(C)C(=O)[C@@H](CC(C)C)N(C)C(=O)[C@H](C)NC(=O)[C@@H](C)NC(=O)[C@@H](CC(C)C)N(C)C(=O)[C@@H](C(C)C)NC(=O)[C@H](CC(C)C)N(C)C(=O)[C@@H](C)N(C)C1=O` [Compound 20, [(2S,3R,4R)-3-Hydroxy-7-(1-methyl-1H-imidazol-4-yl)-4-methyl-2-(methylamino)heptanoic acid]^1 [(R)-methyl-Sar]^3 cyclosporin A], the solubility at 18 h in data set [1] (pH 7.8, aqueous buffer) is greater than 100 µM. The Ki in data set [2] worked out at 5.7 nM. Moreover, the IC50 in data set [3] is greater than 10000 nM.

As for `CC[C@H]1NC(=O)[C@@H]([C@H](O)[C@H](C)CCCc2cccnn2)N(C)C(=O)[C@@H](C(C)C)N(C)C(=O)[C@@H](CC(C)C)N(C)C(=O)[C@@H](CC(C)C)N(C)C(=O)[C@H](C)NC(=O)[C@@H](C)NC(=O)[C@@H](CC(C)C)N(C)C(=O)[C@@H](C(C)C)NC(=O)[C@H](CC(C)C)N(C)C(=O)[C@@H](C)N(C)C1=O` [Compound 21, [(2S,3R,4R)-3-Hydroxy-4-methyl-2-(methylamino)-7-(pyridazin-3-yl)-heptanoic acid]^1 [(R)-methyl-Sar]^3 cyclosporin A], the solubility at 18 h in data set [1] (pH 7.8, aqueous buffer) was greater than 100 µM. For the same molecule, in data set [2], the Ki came to 3.2 nM. Besides, the IC50 in data set [3] was greater than 10000 nM.

In data set [1] (pH 7.8, aqueous buffer), `CC[C@H]1NC(=O)[C@@H]([C@H](O)[C@H](C)CCCc2ncccn2)N(C)C(=O)[C@@H](C(C)C)N(C)C(=O)[C@@H](CC(C)C)N(C)C(=O)[C@@H](CC(C)C)N(C)C(=O)[C@H](C)NC(=O)[C@@H](C)NC(=O)[C@@H](CC(C)C)N(C)C(=O)[C@@H](C(C)C)NC(=O)[C@H](CC(C)C)N(C)C(=O)[C@@H](C)N(C)C1=O` [Compound 22, [(2S,3R,4R)-3-Hydroxy-4-methyl-2-(methylamino)-7-(pyrimidin-2-yl)-heptanoic acid]^1 [(R)-methyl-Sar]^3 cyclosporin A] had a solubility at 18 h greater than 100 µM. For the same molecule, the Ki in data set [2] is 3.2 nM. In addition, in data set [3], the 50% inhibitory concentration (IC50) turned out to be 1160 nM.

Take `CC[C@H]1NC(=O)[C@@H]([C@H](O)[C@H](C)CCCc2ccnn2C)N(C)C(=O)[C@@H](C(C)C)N(C)C(=O)[C@@H](CC(C)C)N(C)C(=O)[C@@H](CC(C)C)N(C)C(=O)[C@H](C)NC(=O)[C@@H](C)NC(=O)[C@@H](CC(C)C)N(C)C(=O)[C@@H](C(C)C)NC(=O)[C@H](CC(C)C)N(C)C(=O)[C@@H](C)N(C)C1=O` [Compound 23, [(2S,3R,4R)-3-Hydroxy-4-methyl-2-(methylamino)-7-(2-methylpyrazol-3-yl)-heptanoic acid]^1 [(R)-methyl-Sar]^3 cyclosporin A]: the solubility at 18 h in data set [1] (pH 7.8, aqueous buffer) was greater than 100 µM. Also, in data set [2], the Ki came to 2.1 nM. Moreover, the IC50 in data set [3] was found to be 3340 nM.
